Reference: paper PMC7558026, “Exploring and applying the substrate promiscuity of a C-glycosyltransferase in the chemo-enzymatic synthesis of bioactive C-glycosides” (Nature Communications, 2020)
“And” between values parts separate entries of the source, which are not always exact repeats. Identical values can stand only once.

Assays:
AbCGT [1] = target: T1, AbCGT (Aloe vera, UniProt A0A7G9P699); test: Glycosyltransferase activity assay, purified AbCGT (wild type) with aglycon acceptors and UDP-Glc; assay type: biochemical, Aloe barbadensis; details: aglycon acceptor with UDP-Glc, pH 7.4, 30 °C, up to 12 h; Reaction-1 to -3
T1 sequence (A0A7G9P699 entry or part of it): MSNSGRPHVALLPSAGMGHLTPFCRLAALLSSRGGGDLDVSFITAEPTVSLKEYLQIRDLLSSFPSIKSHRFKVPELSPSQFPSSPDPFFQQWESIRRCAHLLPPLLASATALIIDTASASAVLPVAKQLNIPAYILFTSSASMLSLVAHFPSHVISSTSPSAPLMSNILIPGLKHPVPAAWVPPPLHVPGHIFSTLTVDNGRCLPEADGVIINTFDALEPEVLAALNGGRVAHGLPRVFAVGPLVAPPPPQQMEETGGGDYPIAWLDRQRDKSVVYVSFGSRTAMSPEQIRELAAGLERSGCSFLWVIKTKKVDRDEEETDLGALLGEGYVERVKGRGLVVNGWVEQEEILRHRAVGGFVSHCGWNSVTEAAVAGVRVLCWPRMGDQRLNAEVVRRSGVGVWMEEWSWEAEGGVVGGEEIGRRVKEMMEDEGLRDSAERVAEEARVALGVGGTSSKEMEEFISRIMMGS

AbCGT [2] = target: T1, AbCGT; test: Kinetic parameters of AbCGT (wild type); assay type: biochemical, Aloe barbadensis; details: acceptor varied, saturating UDP-Glc, pH 7.4, 30 °C
Experimental: The reactions terminated by the addition of 200 μL of ice-cold methanol. Subsequently, samples were centrifuged at 15,000 × g for 30 min to collect the supernatant, and aliquots were analyzed by HPLC as described above. All experiments were performed in triplicate. The value of Km was calculated with the method of Lineweaver–Burk plot.

SGLT2 = target: T2, SGLT2 (Homo sapiens, UniProt P31639); test: 1-NBDG uptake in HEK293 cells stably expressing SGLT2; assay type: cell-based; details: triplicate; for inhibition at 10 µM: HEK293, compound at 10 μM, read-out: SGLT2 inhibitory rates; for SGLT2 inhibitory rates: compound at 10 μM, 10 µM
T2 construct: Human full-length SGLT2 cDNA (NM_003041.3) was synthesized; expressed in transfected cells; host or cells: HEK293, retroviral transduction with pMSCVpuro-SGLT2, puromycin selected
T2 sequence (P31639 1-672): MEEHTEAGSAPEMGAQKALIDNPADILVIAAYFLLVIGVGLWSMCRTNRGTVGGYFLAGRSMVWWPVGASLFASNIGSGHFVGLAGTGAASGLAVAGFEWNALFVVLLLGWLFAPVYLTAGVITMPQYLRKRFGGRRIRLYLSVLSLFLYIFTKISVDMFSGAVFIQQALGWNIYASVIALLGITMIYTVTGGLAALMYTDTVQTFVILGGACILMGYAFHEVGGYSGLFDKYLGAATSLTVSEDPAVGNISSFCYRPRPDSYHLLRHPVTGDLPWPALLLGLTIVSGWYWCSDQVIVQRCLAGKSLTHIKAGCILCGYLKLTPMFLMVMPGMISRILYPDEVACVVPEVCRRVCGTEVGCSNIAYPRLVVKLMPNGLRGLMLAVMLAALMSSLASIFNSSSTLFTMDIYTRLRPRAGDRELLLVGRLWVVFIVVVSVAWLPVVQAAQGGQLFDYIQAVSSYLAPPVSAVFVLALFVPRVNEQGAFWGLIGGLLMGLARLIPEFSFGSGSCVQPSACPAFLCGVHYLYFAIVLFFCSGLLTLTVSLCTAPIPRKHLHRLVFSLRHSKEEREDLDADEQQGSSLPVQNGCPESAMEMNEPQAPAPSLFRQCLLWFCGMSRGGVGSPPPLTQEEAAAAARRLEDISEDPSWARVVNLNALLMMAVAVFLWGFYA

SGLT1 = target: T3, SGLT1 (Homo sapiens, UniProt P13866); test: 1-NBDG uptake in HEK293 cells stably expressing SGLT1; assay type: cell-based; details: HEK293, compound at 10 μM; triplicate; read-out: SGLT1 inhibitory rates
T3 construct: The full-length SGLT1 cDNA was obtained by PCR with forward primer; expressed in transfected cells
T3 sequence (P13866 1-664): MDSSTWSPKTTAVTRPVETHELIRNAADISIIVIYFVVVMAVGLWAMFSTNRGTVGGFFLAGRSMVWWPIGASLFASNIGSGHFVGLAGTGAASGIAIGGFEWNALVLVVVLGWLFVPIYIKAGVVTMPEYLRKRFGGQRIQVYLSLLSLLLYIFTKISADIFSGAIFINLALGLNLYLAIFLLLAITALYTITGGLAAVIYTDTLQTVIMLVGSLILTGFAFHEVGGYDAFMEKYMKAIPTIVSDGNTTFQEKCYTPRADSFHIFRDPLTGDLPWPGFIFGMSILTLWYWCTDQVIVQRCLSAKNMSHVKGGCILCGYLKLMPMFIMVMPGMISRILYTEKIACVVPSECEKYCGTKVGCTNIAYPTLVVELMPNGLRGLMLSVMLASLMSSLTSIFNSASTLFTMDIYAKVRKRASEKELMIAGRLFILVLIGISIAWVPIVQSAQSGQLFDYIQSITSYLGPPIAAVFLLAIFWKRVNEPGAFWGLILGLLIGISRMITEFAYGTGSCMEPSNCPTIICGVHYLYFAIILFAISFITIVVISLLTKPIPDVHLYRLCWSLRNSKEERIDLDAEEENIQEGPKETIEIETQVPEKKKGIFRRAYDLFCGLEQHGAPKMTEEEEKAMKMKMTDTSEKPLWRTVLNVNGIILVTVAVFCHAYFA

[3] = test system: Influenza A/WSN/33 (H1N1); test: microbe, parasite or virus in culture; assay type: cell-based; details: final concentration 20 μM, — = no inhibition activity, read-out: Inhibitory Rates, anti-influenza A virus activity
ICR mice = test: Oral glucose-tolerance test (OGTT) in normal ICR mice; assay type: in vivo; details: individual mice
Experimental: The hypoglycemic effect of 46a was firstly evaluated by oral glucose-tolerance test (OGTT) in mice with normal blood glucose levels. Male Institute of Cancer Research (ICR) mice weighing 24–26 g were obtained from Beijing Vital River Laboratory Animal Technology Co., Ltd (Beijing, China) and divided into three groups (n = 7–8). […] After 2 h of fasting, blood samples were collected from the tails for determination of baseline values of blood glucose (0 min). The mice were then orally administered glucose (2 g kg^‒1 BW), and blood samples were collected at 15, 30, 60, and 120 min. A glucose oxidase (GOD) assay was used for blood glucose-level measurement. The values of area under the glucose-time curve (AUC) were calculated.

alloxan-induced DM mice = test: Hypoglycemic effect in alloxan-induced diabetic mellitus (DM) mice; assay type: in vivo; details: individual mice
Experimental: Type 1 diabetes mellitus (T1DM) mice were established by intravenous injection of alloxan tetrahydrate (68 mg kg^‒1 BW). […] Nonfasting blood glucose was kinetically monitored at 1, 2, 4, 6, 8, 24, and 48 h after treatment with 46a.

KKAy mice [4] = test: Hypoglycemic effect in T2DM KKAy mice, blood glucose; assay type: in vivo; details: individual mice
Experimental: (§1) To evaluate the hypoglycemic effect of 46a in type 2 diabetes mellitus (T2DM), female KKAy mice weighing 42–48 g were obtained from the Animal Center of the Institute of Laboratory Animal Sciences, Chinese Academy of Medical Sciences and Peking Union Medical College. […] Blood samples were collected at 1, 2, 4, 6, 8, 24, and 48 h after treatment. […] The glucose levels in urine 4 h and 6 h after administration were also determined using a Biosen C-Line Glucose analyzer (EKF Diagnostics, Germany).

KKAy mice [5] = test: Urinary glucose excretion in T2DM KKAy mice; assay type: in vivo; details: 46a 100 mg kg^‒1 or dapagliflozin 5mg/kg, individual mice
Experimental: as §1

In the case of `CC(=O)c1c(O)cc(O)cc1O` [Compound 11, phloracetophene], the “conversion rates, O,N,S-glycosylation” value (AbCGT [1]) is reported as 0%, the “conversion rates, di-C-glycosylation” value (AbCGT [1]) is reported as 100% and the “conversion rates, mono-C-glycosylation” value (AbCGT [1]) is reported as 0%. For the same compound, the Kcat (AbCGT [2]) was 2.4 s⁻¹.
For `OCC1OC(c2c(O)cc(O)c(Cc3ccc4nccnc4c3)c2O)C(O)C(O)C1O` (stereo not drawn) [Compound 44a], the inhibition at 10 µM (SGLT2) was > 96%, the SGLT2 inhibitory rates (SGLT2) was 96.6% and the inhibition at 10 µM (SGLT1) was 31.8%. For the same compound, the inhibition at 20 µM [3] was 82.8%.
`CCOc1ccc(Cc2cc([C@@H]3O[C@H](CO)[C@@H](O)[C@H](O)[C@H]3O)ccc2Cl)cc1` [Dapagliflozin, reference compound] showed an inhibition at 10 µM (SGLT2) of 100%, an SGLT2 inhibitory rates (SGLT2) of 102.4% and an inhibition at 10 µM (SGLT1) of 98.4%. For the same compound, the “OD505nm (blood glucose, GOD assay) in OGTT” value (“OD505nm … in OGTT” below) (ICR mice; 0 min, ICR mice, oral 46a 100 mg kg^‒1 or dapagliflozin 5 mg kg^‒1) was 0.188 and 0.144 and 0.165 and 0.159 and 0.17 and 0.15 and 0.177 and 0.146, the “OD505nm … in OGTT” value (ICR mice; 15 min after glucose 2 g kg^‒1, oral 46a 100 mg kg^‒1 or dapagliflozin 5 mg kg^‒1) was 0.243 and 0.23 and 0.198 and 0.207 and 0.185 and 0.182 and 0.211 and 0.199 and the “OD505nm … in OGTT” value (ICR mice; 30 min after glucose, same doses) was 0.2 (2×) and 0.22 and 0.193 and 0.178 and 0.196 and 0.205 and 0.204. The “OD505nm … in OGTT” value (ICR mice; 60 min after glucose, same doses) was 0.209 and 0.178 and 0.176 and 0.169 and 0.175 and 0.171 and 0.182 and 0.185, the “OD505nm … in OGTT” value (ICR mice; 120 min after glucose, same doses) was 0.173 and 0.17 and 0.162 and 0.165 (2×) and 0.166 and 0.157 and 0.167 and the “OD505nm (nonfasting blood glucose)” value (alloxan-induced DM mice; 0h, alloxan-induced DM mice, single dose 46a 100 mg kg^‒1 or dapagliflozin 5 mg kg^‒1) was 0.567 and 0.574 and 0.561 and 0.564 and 0.434 and 0.496 and 0.426 and 0.589. For the same compound, the “OD505nm (nonfasting blood glucose)” value (alloxan-induced DM mice; 1h, same doses) was 0.393 and 0.333 and 0.301 and 0.52 and 0.314 and 0.35 and 0.222 and 0.29, the “OD505nm (nonfasting blood glucose)” value (alloxan-induced DM mice; 2h, same doses) was 0.27 and 0.388 and 0.281 and 0.364 and 0.279 and 0.346 and 0.193 and 0.231 and the “OD505nm (nonfasting blood glucose)” value (alloxan-induced DM mice; 4h, same doses) was 0.352 and 0.41 and 0.322 and 0.471 and 0.197 and 0.266 and 0.208 and 0.227. The “OD505nm (nonfasting blood glucose)” value (alloxan-induced DM mice; 8h, same doses) was 0.347 and 0.446 and 0.312 and 0.421 and 0.195 and 0.25 and 0.231 and 0.327, the “OD505nm (nonfasting blood glucose)” value (alloxan-induced DM mice; 24h, same doses) was 0.536 and 0.578 and 0.561 and 0.735 and 0.409 and 0.563 and 0.408 and 0.501 and the “OD505nm (nonfasting blood glucose)” value (alloxan-induced DM mice; 48h, same doses) was 0.513 and 0.594 and 0.579 and 0.796 and 0.531 and 0.647 and 0.477 and 0.584. The blood glucose (KKAy mice [4]; 0h, KKAy mice, single dose 46a 100 mg kg^‒1 or dapagliflozin 5 mg kg^‒1) was 376.7 mg/dL and 390 mg/dL and 405.5 mg/dL and 293.3 mg/dL and 575.6 mg/dL and 463.6 mg/dL and 388.1 mg/dL, the blood glucose (KKAy mice [4]; 1h, same doses) was 205.5 mg/dL and 228.8 mg/dL and 391.4 mg/dL and 363.9 mg/dL and 193.8 mg/dL and 248.6 mg/dL and 235.8 mg/dL and the blood glucose (KKAy mice [4]; 2h, same doses) was 279.3 mg/dL and 221.6 mg/dL and 285.4 mg/dL and 256 mg/dL and 184.4 mg/dL and 245.5 mg/dL and 256.8 mg/dL. The blood glucose (KKAy mice [4]; 4h, same doses) was 138 mg/dL and 102 mg/dL and 48.9 mg/dL and 98.1 mg/dL and 137.3 mg/dL and 182.3 mg/dL and 181.7 mg/dL, the blood glucose (KKAy mice [4]; 6h, same doses) was 123.1 mg/dL and 172.3 mg/dL and 164.6 mg/dL and 79.8 mg/dL and 177.1 mg/dL and 134.4 mg/dL and the blood glucose (KKAy mice [4]; 8h, same doses) was 91.6 mg/dL and 196.3 mg/dL and 150.5 mg/dL and 208.1 mg/dL and 124.9 mg/dL and 86.9 mg/dL. The blood glucose (KKAy mice [4]; 24h, same doses) was 254.9 mg/dL and 217.5 mg/dL and 176.2 mg/dL and 237.1 mg/dL and 286.9 mg/dL and 219.8 mg/dL, the blood glucose (KKAy mice [4]; 48h, same doses) was 395.7 mg/dL and 347.1 mg/dL and 229.8 mg/dL and 332.5 mg/dL and 388.1 mg/dL and 274.9 mg/dL and the glucose in urine (KKAy mice [5]; 4h) was 13936 mg/dL and 9326 mg/dL and 12440 mg/dL and 15728 mg/dL. The glucose in urine (KKAy mice [5]; 6h) was 15122 mg/dL and 8208 mg/dL and 11640 mg/dL and 11138 mg/dL.
